In US6004966A, “Use of xanthine oxidase inhibitors as anti-ischaemic agents” (BTG International Limited, priority 1994, dated 1999):
Read-outs that look alike come from different tables or passages of the source.

Key:
[1] = Hydroxyl radical scavenging activity (inhibition of NPG hydroxylation by peroxynitrous acid); settings: n=3
Procedure: Antioxidant activity is based on the selective hydroxylation of NPG (N,N'-[5-nitro-1,3-phenylene] bisglutaramide) by hydroxyl radicals produced from peroxynitrous acid (1 mM) by the addition of peroxynitrite stabilised in base to a mixture of NPG (1 mM) and varying concentrations of the anti-ischaemic agents prepared in 0.2M phosphate buffer, pH 7. The solutions were analysed by RP-HPLC. NPS (50 mM), an analogue of NPG, was used as an internal standard. Inhibition of hydroxylation of NPG is a direct measure of the hydroxyl radical scavenging ability of the inhibitors.
Values are expressed as percentage scavenging of the hydroxyl radicals % standard deviation, n=3.

[2] = test system: rat hearts; assay: Heart ischaemia reperfusion studies (Langendorff perfused rat hearts); design: species or system Wistar rats; settings: 150 μM in reperfusion perfusate, after 60 min aerobic perfusion following 50 min ischaemia, ±sem
Procedure: Adult male Wistar rats (240-320 g) were anaesthetised intraperitoneally (i.p.) with sodium pentobarbital (Sagatal; 60 mg/kg and heparinised (100 IU/100 g body weight) through the femoral vein, and the heart excised in cold Krebs buffer. By Langendorff technique, the hearts were perfused at a constant pressure (100 mm H2 O) with Krebs bicarbonate buffer. The study was initiated by 30 min aerobic perfusion followed by a 50 min period of global ischaemia, achieved by clamping perfusion flow into the aorta, and finally by reperfusion over 60 min. A ballon was inserted into the left ventricle and inflated to a left ventricular end diastolic pressure (LVEDP) of 4 mm Hg and used to measure left ventricular developed pressure (LVDP) and heart rate (HR). In addition, the coronary effluent was collected over timed intervals as a measure of coronary flow (CF). Assessment of function was made 20 min after the start of the study and at 10 min intervals thereafter. SL301 treated hearts followed a similar protocol as above except that the drug was present in the reperfusion perfusate following the ischaemic insult.

[3] = target: xanthine oxidase (Bos taurus, UniProt P80457); assay: Xanthine oxidase inhibition assay (superoxide-dependent cytochrome c reduction); type: biochemical; settings: for inhibition at 1 µM / inhibition at 5 µM / inhibition at 10 µM / inhibition at 50 µM / % Inhibition (of initial rate of reaction): n=3; for inhibition at 1 µM / inhibition at 5 µM / inhibition at 10 µM / inhibition at 50 µM: read-out: % Inhibition (of initial rate of reaction); for xanthine oxidase inhibition, result in words: statement under Table 4
Procedure: Superoxide produced from the oxidation of varying concentrations of xanthine to uric acid in the presence of xanthine oxidase (5×10^-3 U/ml) was quantified by the superoxide dismutase inhibitable reduction of […] (10 μM) at 550 nm with respect to time. Enzyme inhibition was determined at varying concentrations of the inhibitors.

[4] = target: bovine xanthine oxidase (Bos taurus, UniProt P80457); assay: Further xanthine oxidase inhibition studies, steady-state kinetic analysis (uric acid formation); type: biochemical; settings: 37° C.; for manner of xanthine oxidase inhibition: pH 7.4, inhibitors 1-3 μM
Procedure: The study was conducted at 37° C. using 30 mU/ml bovine xanthine oxidase in 50 mM phosphate buffer (ph 7.4). The initial rate of uric acid formation was determined spectrophotometrically (292 nm) in the presence of varying concentrations of xanthine (5, 7.5, 10, 15 and 20 μM) and the inhibitors (1-3 μM). Enzyme-inhibitor dissociation constant (Ki) values were calculated from the apparent 1/Vmax values obtained at different inhibitor concentrations.

[5] = Table 1, [Xanthine] = 50 μM, inhibitor 1 μM
[6] = Table 1, [Xanthine] = 50 μM, inhibitor 5 μM
[7] = Table 1, [Xanthine] = 50 μM, inhibitor 10 μM
[8] = Table 1, [Xanthine] = 50 μM, inhibitor 50 μM
[9] = Table 2, [Xanthine] = 25 μM, inhibitor 1 μM
[10] = Table 2, [Xanthine] = 25 μM, inhibitor 5 μM
[11] = Table 2, [Xanthine] = 25 μM, inhibitor 10 μM
[12] = Table 2, [Xanthine] = 25 μM, inhibitor 50 μM
[13] = Table 3, [Xanthine] = 25 μM, inhibitor 1 μM
[14] = Table 3, [Xanthine] = 25 μM, inhibitor 5 μM
[15] = Table 3, [Xanthine] = 25 μM, inhibitor 10 μM
[16] = Table 3, [Xanthine] = 25 μM, inhibitor 50 μM
[17] = Table 4, [Xanthine] = 8 μM, inhibitor 1 μM
[18] = Table 4, [Xanthine] = 8 μM, inhibitor 5 μM
[19] = Table 4, [Xanthine] = 8 μM, inhibitor 10 μM
[20] = Table 4, [Xanthine] = 8 μM, inhibitor 50 μM

Chain of xanthine oxidase (P80457 whole entry): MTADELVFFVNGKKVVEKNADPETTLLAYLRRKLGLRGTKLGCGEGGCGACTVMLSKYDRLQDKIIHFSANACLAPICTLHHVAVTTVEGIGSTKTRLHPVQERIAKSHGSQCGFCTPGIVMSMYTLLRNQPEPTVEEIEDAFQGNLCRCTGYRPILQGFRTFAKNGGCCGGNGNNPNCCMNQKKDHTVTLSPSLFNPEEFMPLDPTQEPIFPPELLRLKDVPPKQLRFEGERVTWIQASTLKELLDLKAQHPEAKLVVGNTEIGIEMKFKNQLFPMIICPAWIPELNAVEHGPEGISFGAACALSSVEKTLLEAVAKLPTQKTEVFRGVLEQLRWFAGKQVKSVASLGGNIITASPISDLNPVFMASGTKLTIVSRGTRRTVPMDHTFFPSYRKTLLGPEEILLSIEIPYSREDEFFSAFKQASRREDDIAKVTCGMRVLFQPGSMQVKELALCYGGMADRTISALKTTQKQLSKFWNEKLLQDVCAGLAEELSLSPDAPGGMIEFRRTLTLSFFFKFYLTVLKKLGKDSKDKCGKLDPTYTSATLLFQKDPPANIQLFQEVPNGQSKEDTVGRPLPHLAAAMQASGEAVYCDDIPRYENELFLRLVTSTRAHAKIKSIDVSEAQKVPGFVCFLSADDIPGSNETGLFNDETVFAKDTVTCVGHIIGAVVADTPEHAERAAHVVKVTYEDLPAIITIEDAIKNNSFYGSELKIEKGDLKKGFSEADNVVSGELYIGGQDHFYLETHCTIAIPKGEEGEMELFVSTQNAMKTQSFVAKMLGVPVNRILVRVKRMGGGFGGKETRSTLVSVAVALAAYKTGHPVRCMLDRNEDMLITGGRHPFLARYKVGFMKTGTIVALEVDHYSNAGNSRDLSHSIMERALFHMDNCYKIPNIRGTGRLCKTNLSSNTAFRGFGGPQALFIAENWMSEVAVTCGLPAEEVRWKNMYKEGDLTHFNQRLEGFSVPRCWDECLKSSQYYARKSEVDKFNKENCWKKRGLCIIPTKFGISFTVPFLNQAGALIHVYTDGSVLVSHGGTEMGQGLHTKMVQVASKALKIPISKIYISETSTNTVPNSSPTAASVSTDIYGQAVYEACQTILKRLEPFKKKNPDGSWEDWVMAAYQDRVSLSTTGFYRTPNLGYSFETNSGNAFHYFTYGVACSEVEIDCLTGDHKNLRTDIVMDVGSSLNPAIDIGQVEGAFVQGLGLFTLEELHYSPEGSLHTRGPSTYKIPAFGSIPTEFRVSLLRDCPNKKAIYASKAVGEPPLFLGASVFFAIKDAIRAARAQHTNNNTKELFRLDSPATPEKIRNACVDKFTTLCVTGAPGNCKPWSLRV
Chain of bovine xanthine oxidase (P80457 whole entry): as above

Row | inhibition at 5 µM [3, 6] [%] | inhibition at 10 µM [3, 7] [%] | inhibition at 50 µM [3, 8] [%] | inhibition at 1 µM [3, 9] [%] | inhibition at 5 µM [3, 10] [%] | inhibition at 10 µM [3, 11] [%] | inhibition at 50 µM [3, 12] [%] | inhibition at 5 µM [3, 14] [%] | inhibition at 10 µM [3, 15] [%] | inhibition at 50 µM [3, 16] [%] | inhibition at 1 µM [3, 17] [%] | inhibition at 5 µM [3, 18] [%] | inhibition at 10 µM [3, 19] [%] | inhibition at 50 µM [3, 20] [%] | xanthine oxidase inhibition, result in words [3] | Compound | % Activity (percentage scavenging of the hydroxyl radical) ([1]; Antioxidant Ratio 0.1) [%] | % Activity (percentage scavenging of the hydroxyl radical) ([1]; Antioxidant Ratio 0.5) [%] | % Activity (percentage scavenging of the hydroxyl radical) ([1]; Antioxidant Ratio 1.0) [%] | % Activity (percentage scavenging of the hydroxyl radical) ([1]; Antioxidant Ratio 5.0) [%] | also measured
1 | 31.8 | 39.6 | 63.2 | 37.1 | 51 | 58 | 72 | 41.7 | 58.3 | 77.8 | 22.3 | 41.8 | 49.8 | 70.9 | – | O=c1[nH]c2nccnc2c(=O)n1O [SL301] | 9.80 | 18.00 | 45.90 | 70.21 | % recovery of pre-ischaemic LVDP (left ventricular developed pressure) ([2]; control 41 ± 13): 76 ± 9%; % recovery of pre-ischaemic HR (heart rate) ([2]; control 49 ± 13): 90 ± 6%; % recovery of pre-ischaemic CF (coronary flow) ([2]; control 83 ± 6): 72 ± 4%; inhibition at 1 µM [3, 5]: 29.1%; inhibition at 1 µM [3, 13]: 25%; Ki ([4]; 30 mU/ml bovine xanthine oxidase, 50 mM phosphate buffer pH 7.4, xanthine 5-20 μM): 700 nM; manner of xanthine oxidase inhibition [4]: competitive
2 | – | – | – | – | – | – | – | – | – | – | – | – | – | – | inactive | O=c1[nH]c2[nH]cnc2c(=O)n1O [SL201] | – | – | – | – | –
3 | – | – | – | – | – | – | – | – | – | – | – | – | – | – | inactive | O=c1[nH]c2[nH]ncc2c(=O)n1O [SL101, 2,6-dioxo-1-hydroxypyrazolo-[3,4-d]-pyrimidine] | 8.25 | 20.96 | 39.71 | 72.79 | –
4 | 1.84 | 14.2 | 16 | 13.8 | 9.09 | 16.1 | 34.7 | 5.55 | 11.1 | 27.8 | 6.15 | 12.6 | 19.1 | 38.5 | – | O=c1c2nccnc2ncn1O [SL300, 1-hydroxy-6-oxypyrazino-[2,3-d]-pterine] | – | 6.04 | 26.58 | 68.58 | –
5 | 24.8 | 32.3 | 67.4 | 2.26 | 37.3 | 42.4 | 62.4 | 46.1 | 30.8 | 43.6 | 6.06 | 33.3 | 45.5 | 48.5 | – | O=c1[nH]c(=O)c2c[nH]nc2[nH]1 [Oxypurinol, oxypurinol, reference compound] | – | – | – | – | inhibition at 1 µM [3, 5]: 2.26%; inhibition at 1 µM [3, 13]: 15.4%
6 | – | – | – | – | – | – | – | – | – | – | – | – | – | – | inactive | O=c1c2cn[nH]c2ncn1O [SL100, 1, hydroxy-6-oxypyrazolo-[3,4-d]-pyrimidine] | 6.56 | 37.70 | 65.58 | 100 | –
7 | – | – | – | – | – | – | – | – | – | – | – | – | – | – | – | Oc1ncnc2[nH]ncc12 [Allopurinol, allopurinol, reference compound] | – | – | – | – | % Inhibition (of initial rate of reaction) [3, 5]: 13.83%; % Inhibition (of initial rate of reaction) [3, 6]: 22.90%; % Inhibition (of initial rate of reaction) [3, 7]: 20.63%; % Inhibition (of initial rate of reaction) [3, 8]: 59.18%; % Inhibition (of initial rate of reaction) [3, 10]: 2.41%; % Inhibition (of initial rate of reaction) [3, 11]: 14.09%; % Inhibition (of initial rate of reaction) [3, 12]: 58.76%; % Inhibition (of initial rate of reaction) [3, 13]: 23.88%; % Inhibition (of initial rate of reaction) [3, 14]: 64.57%; % Inhibition (of initial rate of reaction) [3, 15]: 44.88%; % Inhibition (of initial rate of reaction) [3, 16]: 68.50%; % Inhibition (of initial rate of reaction) [3, 17]: 17.40%; % Inhibition (of initial rate of reaction) [3, 18]: 29.20%; % Inhibition (of initial rate of reaction) [3, 19]: 49.85%; % Inhibition (of initial rate of reaction) [3, 20]: 73.45%; manner of xanthine oxidase inhibition [4]: competitive
8 | – | – | – | – | – | – | – | – | – | – | – | – | – | – | inactive | O=c1c2[nH]cnc2ncn1O [SL200, 1-hydroxy-6-oxopurine] | 25.13 | 48.49 | 69.54 | 90.09 | –
